Test results as given in the supplement of paper PMC10307832.

Experiments:
Test in all cases: relative viability (nuclei count vs DMSO), 5 days (fraction); higher = more cells survive
Pictilisib + Lapatinib = compound: CS(=O)(=O)N1CCN(Cc2cc3nc(-c4cccc5[nH]ncc45)nc(N4CCOCC4)c3s2)CC1 [Pictilisib] + CS(=O)(=O)CCNCc1ccc(-c2ccc3ncnc(Nc4ccc(OCc5cccc(F)c5)c(Cl)c4)c3c2)o1 [Lapatinib] (partner 2 µM)
How it was run: (§1)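 After 5 days of treatment, lung cancer cells in 1536-well plates were fixed and stained in a single step (final 0.05% Triton X-100, 1% formaldehyde, 1 ug/ml Hoechst) and their nuclei counted on 4× images. Treatment had been applied by pin tool the day after seeding as one drug alone or as a fixed anchor-drug dose with five library-drug doses (not always all listed) in √10 steps. Relative viability is the nuclei count of treated wells divided by that of vehicle wells, and values are medians of duplicate plates.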

Pictilisib + Pemetrexed = compound: CS(=O)(=O)N1CCN(Cc2cc3nc(-c4cccc5[nH]ncc45)nc(N4CCOCC4)c3s2)CC1 [Pictilisib] + Nc1nc2[nH]cc(CCc3ccc(C(=O)N[C@@H](CCC(=O)O)C(=O)O)cc3)c2c(=O)[nH]1 [Pemetrexed] (partner 0.2 µM)
How it was run: as §1

MK-2206 + OSI-027 = compound: NC1(c2ccc(-c3nc4ccn5c(=O)[nH]nc5c4cc3-c3ccccc3)cc2)CCC1 [MK-2206] + COc1cccc2cc(-c3nc([C@H]4CC[C@H](C(=O)O)CC4)n4ncnc(N)c34)[nH]c12 [OSI-027] (partner 0.5 µM)
How it was run: as §1

MK-2206 + Phenformin = compound: NC1(c2ccc(-c3nc4ccn5c(=O)[nH]nc5c4cc3-c3ccccc3)cc2)CCC1 [MK-2206] + N=C(N)NC(=N)NCCc1ccccc1 [Phenformin] (partner 250 µM)
How it was run: as §1

Pictilisib + Trametinib = compound: CS(=O)(=O)N1CCN(Cc2cc3nc(-c4cccc5[nH]ncc45)nc(N4CCOCC4)c3s2)CC1 [Pictilisib] + CC(=O)Nc1cccc(-n2c(=O)n(C3CC3)c(=O)c3c(Nc4ccc(I)cc4F)n(C)c(=O)c(C)c32)c1 [Trametinib] (partner 0.02 µM)
How it was run: as §1

| Cell Line | relative viability (Pictilisib + Lapatinib; first compound 0.02 µM) | relative viability (Pictilisib + Lapatinib; first compound 0.06325 µM) | relative viability (Pictilisib + Lapatinib; first compound 0.6325 µM) | relative viability (Pictilisib + Lapatinib; first compound 2 µM) | relative viability (Pictilisib + Pemetrexed; first compound 0.02 µM) | relative viability (Pictilisib + Pemetrexed; first compound 0.06325 µM) | relative viability (Pictilisib + Pemetrexed; first compound 0.6325 µM) | relative viability (Pictilisib + Pemetrexed; first compound 2 µM) | relative viability (MK-2206 + OSI-027; first compound 0.01 µM) | relative viability (MK-2206 + OSI-027; first compound 0.03162 µM) | relative viability (MK-2206 + OSI-027; first compound 0.3162 µM) | relative viability (MK-2206 + OSI-027; first compound 1 µM) | relative viability (MK-2206 + Phenformin; first compound 0.01 µM) | relative viability (MK-2206 + Phenformin; first compound 0.03162 µM) | relative viability (MK-2206 + Phenformin; first compound 0.3162 µM) | relative viability (MK-2206 + Phenformin; first compound 1 µM) | relative viability (Pictilisib + Trametinib; first compound 0.02 µM) | relative viability (Pictilisib + Trametinib; first compound 0.06325 µM) | relative viability (Pictilisib + Trametinib; first compound 0.6325 µM) | relative viability (Pictilisib + Trametinib; first compound 2 µM) |
| --- | --- | --- | --- | --- | --- | --- | --- | --- | --- | --- | --- | --- | --- | --- | --- | --- | --- | --- | --- | --- |
| NCI-H1563 | 1 | 0.948 | 0.696 | 0.564 | 0.742 | 0.764 | 0.635 | 0.45 | 0.756 | 0.727 | 0.626 | 0.6 | 0.625 | 0.601 | 0.606 | 0.616 |  |  |  |  |
| NCI-H727 | 0.876 | 0.825 | 0.781 | 0.654 |  |  |  |  | 0.479 | 0.615 | 0.537 | 0.52 | 0.607 | 0.71 | 0.533 | 0.592 | 0.409 | 0.367 | 0.344 | 0.331 |
| NCI-H522 |  |  |  |  | 1.08 | 1.1 | 0.796 | 0.481 | 0.867 | 0.726 | 0.615 | 0.631 | 0.605 | 0.681 | 0.627 | 0.613 | 0.884 | 0.721 | 0.572 | 0.43 |
| NCI-H1623 |  |  |  |  |  |  |  |  | 0.44 | 0.426 | 0.411 | 0.355 | 0.555 | 0.592 | 0.574 | 0.605 |  |  |  |  |
| NCI-H1299 | 1.02 | 1.01 | 1 | 1.01 |  |  |  |  |  |  |  |  |  |  |  |  |  |  |  |  |
| LCLC-103H |  |  |  |  | 0.468 | 0.419 | 0.475 | 0.428 | 0.476 | 0.459 | 0.445 | 0.408 | 0.304 | 0.321 | 0.351 | 0.314 | 0.649 | 0.711 | 0.501 | 0.558 |
| Calu-6 | 1.15 | 1.19 | 0.898 | 0.911 |  |  |  |  |  |  |  |  |  |  |  |  |  |  |  |  |
